{
  "source": "patent US7135436B2",
  "about": "“Solid algicide, preparation and usage in recirculating water” (J.F. Daley International, Ltd., priority 2003, dated 2006)",
  "origin": "cited, not measured here",
  "settings": "at 20° C.; 'believed to be'",
  "data": [
    {"smiles": "CCNc1nc(Cl)nc(NC(C)(C)C)n1", "note": "[terbuthylazine, 2-(tert-butylamino)-4-chloro-6-(ethylamino)-s-triazine]", "values": [
      {"measurement": "solubility of terbuthylazine in water", "value": "about 5 ppm"}
    ]}
  ]
}
